In PMC5974403, “The novel histone de acetylase 6 inhibitor, MPT0G211, ameliorates tau phosphorylation and cognitive deficits in an Alzheimer’s disease model” (Cell Death & Disease, 2018):
“Also recorded” adds a separate entry of the source.

Tests used:
3×Tg-AD mice = assay: Immunohistochemistry and western blot of brain (hippocampal CA1) of 3×Tg-AD mice; assay type: in vivo, mouse; conditions: 3×Tg-AD mice, 50, 100 mg/kg oral, 3 months
From the text: Red arrowheads indicate phosphorylated-tau proteins. Scale bar = 25 μm. Data represent the mean ± SEM. *p < 0.05, **p < 0.01, and ***p < 0.001 compared with the basal or control group; ^#p < 0.05, ^##p < 0.01, and ^###p < 0.001 compared with the vehicle-treated group

SH-SY5Y cells [1] = assay: Subcellular fractionation of tau pools (tau aggregation) in transfected SH-SY5Y cells; assay type: cell-based, human; conditions: SH-SY5Y transfected hAPP 695 + hTau P301L, 0.1 μM, 24 h
Description: The fractionation scheme used to separate different cellular pools of tau, and the western blot analysis of the effects of the compounds on tau pools generated using the fractionation scheme are presented. b, d SH-SY5Y cells were transfected for 24 h with pCAX APP 695 and pRK5-EGFP-Tau P301L, incubated with or without MPT0G211 or ACY-1215 (0.1 μM) for another 24 h, and then the cells were fixed and stained by propidium iodide (b) or annexin V/PI double staining (d) and analyzed by flow cytometry. c, e Percentages of the subG1 phase (c) or annexin V-positive cells (e) in response to drug treatment as explained in (b). Results are presented as the mean ± SEM. *p < 0.05 and **p < 0.01 compared with the control group; ^#p < 0.05 and ^##p < 0.01 compared with the indicated groups TEXT PRINTED IN THE PICTURE: (B) MPT0G211: hAPP + hTauP301L: SubG1 10.91% | (B) ACY-1215: hAPP + hTauP301L: SubG1 15.40% | (D) MPT0G211: hAPP + hTauP301L: 9.56%; hAPP + hTauP301L: 11.26% | (D) ACY-1215: hAPP + hTauP301L: 9.28%; hAPP + hTauP301L: 11.25%
This assay followed a published method. Briefly, cells (1 × 10^7) were treated with drugs for 24 h and scraped off into breaking buffer (0.25 M sucrose, 10 mM HEPES, pH 7.2, 1 mM MgAc2, and protease inhibitors). […] Samples containing equal amounts of protein were analyzed using SDS-PAGE.

Neuro-2a cells = assay: MTT cell viability, Neuro-2a; assay type: cell-based, mouse; conditions: 24 h, 0.01–1 μM
Description: Cell viabilities were determined by MTT assay. The results represent the mean ± SEM of three independent experiments; *p < 0.05, **p < 0.01 and ***p < 0.001 compared with controls TEXT PRINTED IN THE PICTURE: (A) no label printed: M.W. 293.32

SH-SY5Y cells [2] = assay: Western blot of tau phosphorylation and kinases in SH-SY5Y cells transfected with pCAX APP 695 and pRK5-EGFP-Tau P301L; assay type: cell-based, human; conditions: 0.1 μM, 24 h
Description: Images represented magnification at ×100. b Cells were transfected with pCAX APP 695 for 24 h, harvested, and cell lysates were subjected to Western blotting. c, d SH-SY5Y and Neuro-2a cells were transfected with pCAX APP 695 and/or pRK5-EGFP-Tau P301L for 24 h. Cell lysates were prepared for western blot analysis of the indicated proteins. e, f Cells were transfected with pCAX APP 695 and pRK5-EGFP-Tau P301L for 24 h and were then incubated with or without MPT0G211 or ACY-1215 (0.1 μM) for another 24 h. Cell lysates were subjected to western blot analysis using the indicated antibodies. Results are presented as the mean ± SEM from three independent experiments. **p < 0.01, ***p < 0.001 compared with the control group; ^#p < 0.05, ^##p < 0.01 compared with the indicated groups
Cell lysates were prepared for western blot analysis of the indicated proteins. Results are presented as the mean ± SEM. *p < 0.05, **p < 0.01, and ***p < 0.001 compared with the control group; ^#p < 0.05, ^##p < 0.01, ^###p < 0.001 compared with the indicated groups
Cells were seeded 1 day before transfection. The plasmids pCAX FLAG APP and pRK5-EGFP-Tau P301L (1 μg each) and 1 μL of TurboFect transfection reagent were mixed for 20 min at room temperature, added to the cells, and the suspensions were incubated for 24 h at 37 °C in a humidified atmosphere containing 5% CO2.
Cells (1 × 10^6) were incubated for 10 min at 4 °C in lysis buffer (20 mM HEPES, pH 7.4, 2 mM EGTA, 50 mM β-glycerophosphate, 0.1% Triton X-100, 10% glycerol, 1 mM dithiothreitol, 1 μg/mL leupeptin, 5 μg/mL aprotinin, 1 mM phenylmethylsulfonyl fluoride, and 1 mM sodium orthovanadate), scraped from the plate, incubated on ice for 10 min, and centrifuged at 17,000 × g for 30 min at 4 °C. Protein samples (30 μg) were electrophoresed through sodium dodecyl sulfate-polyacrylamide gels (SDS-PAGE) and transferred onto a nitrocellulose membrane, which was then blocked by incubation for 30 min at room temperature with 5% fat-free milk in PBS. Immunoblotting was performed by overnight incubation at 4 °C with primary antibodies in PBS, followed by incubation for 1 h at room temperature with HRP-conjugated secondary antibodies. Bound antibodies were measured using ECL reagent (T-Pro Biotechnology, New Taipei City, Taiwan), and the membrane was placed on a photographic film. Cell lysates (30 μg) were incubated with antibodies (1 μg each) and protein A/G agarose beads overnight at 4 °C. The precipitated beads were washed three times with 1 mL of ice-cold cell lysis buffer, and bound immune complexes were separated using 8% SDS-PAGE, followed by immunoblotting using the indicated primary antibody.

Compound: O=C(NO)c1ccc(CNc2cccc3cccnc23)cc1 [MPT0G211, N-hydroxy-4-((quinolin-8-ylamino)methyl)benzamide]
- acetyl-α-tubulin accumulation in brain (3×Tg-AD mice): increased
- p-Tau (S396) expression in brain (3×Tg-AD mice; hippocampal CA1): significantly downregulated
- p-Tau (S404) expression in brain (3×Tg-AD mice; hippocampal CA1): significantly downregulated
- levels of aggregated tau (SH-SY5Y cells [1]): significantly reduced
- cytotoxicity (MTT cell viability) (Neuro-2a cells): did not result in any significant cytotoxicity
- phosphorylation of tau Ser396 (SH-SY5Y cells [2]; SH-SY5Y transfected hAPP 695 + hTau P301L): significantly inhibited; also recorded: significantly attenuated
- CDK5, p25, or p35 expression (SH-SY5Y cells [2]; SH-SY5Y transfected): no marked changes
- phospho-GSK3β on Ser9 (SH-SY5Y cells [2]; SH-SY5Y transfected): significant phospho-GSK3β increases
- phospho-GSK3β on Ser216 (SH-SY5Y cells [2]; SH-SY5Y transfected): a decrease
- phosphorylation of tau Ser404 (SH-SY5Y cells [2]; SH-SY5Y transfected): significantly attenuated
